In US20140309184A1, “METHODS AND COMPOSITIONS FOR THE TREATMENT OF OVARIAN CANCER” (UNIVERSITY OF SOUTH ALABAMA, priority 2011, published 2014):

Assays:
Type in all cases: cell-based
ES2 cells = experiment: MTS IC50 dosage calculation with BMS-833923; conditions: Homo sapiens, ES-2; ES2 monolayer, MTS up to 72 hrs
Protocol: (§1) Ovarian cancer cells were seeded at a density of 4,000 cells/well in 96 well plates. The following day, fresh medium was added to each well and they were treated with BMS-833923 at a dose-escalation at the following doses 0, 0.1, 0.25, 0.5, 1, 2, 5, 10, and 20 μM. These cells were kept at 37° C. in a humidified 5% CO2 atmosphere. Every 24 hours, 20 μl/well of MTS reagent were added in 96 well plates and stored in 37° C. incubator for at least 3 hours followed by absorbance reading at 490 nm. The assay was carried out up to 72 hrs to obtain the IC50 concentrations of each agent.
(§2) IC50 dosage determinations were performed as described above. […] BMS-833923 IC50 doses were used for all related experiments for specific ovarian cancer cell lines.

OV90 cells = experiment: MTS IC50 dosage calculation with BMS-833923; conditions: Homo sapiens, OV-90; OV90 monolayer, MTS up to 72 hrs
Protocol: as §1, §2

SKOV3 cells [1] = experiment: MTS IC50 dosage calculation with BMS-833923; conditions: Homo sapiens, SK-OV-3; SKOV3 monolayer, MTS up to 72 hrs
Protocol: as §1, §2

TOV112D cells = experiment: MTS IC50 dosage calculation with BMS-833923; conditions: Homo sapiens; TOV112D monolayer, MTS up to 72 hrs
Protocol: as §1, §2

GLI1 = experiment: Quantitative RT-PCR of Hedgehog pathway mediators in SKOV3 cells
Protocol: (§3) Total RNA was isolated using Trizol reagent from ovarian cancer cell line monolayer and spheroids-forming cells according to the manufacturer instructions (Invitrogen Corporation, Carlsbad, Calif.) and cDNA was prepared using High Capacity Reverse Transcriptase Kit (Applied Biosystem, Foster City, Calif.). Real-time PCR was performed using a Bio-Rad iQ5 Real-time Detection system (Bio-Rad). All reactions were done as three independent replicates. All assays were done using the TaqMan Gene Expression Assays from Applied Biosystems. Primers and probes for the TaqMan system were selected from the Applied Biosystems website. [Gli1 assay ID: Hs01110766 ml, Patched (PTCH) assay ID: Hs00970980 ml. The relative expression mRNA levels of GLI1, and PTCH were normalized to internal control glyceraldehyde-3-phosphate dehydrogenase (assay ID: Hs99999905 ml) levels (2^−δδCT).
(§4) Quantitative realtime PCR (RT-PCR) was performed as described above. To assess the effects of inhibition of SMO by BMS-833923, levels of GLI1 and PTCH were measured by quantitative RT-PCR. SKOV3 ovarian cancer cell line was treated with 2.5 μM BMS-833923 for 24 hr and 48 hr and compared to untreated controls.

PTCH = experiment: as above
Protocol: as §3, §4

SKOV3 cells [2] = experiment: MTS cell survival with BMS-833923 plus chemotherapy, Calcusyn combination index
Protocol: An MTS in vitro assay was performed using chemotherapy agents commonly used for ovarian cancer (carboplatin, paclitaxel, gemcitabine, topotecan and liposomal doxorubicin) with or without BMS-833923. Ovarian cancer cells ES2, SKOV3, OV90 and TOV112D were seeded at a density of 4,000 cells/well in 96-well tissue culture plates. The following day, fresh medium was added to each well and treated with IC50 concentrations of BMS-833923 as well as the aforementioned chemotherapies and kept at 37° C. in a humidified 5% CO2 atmosphere. Every 24 hr, 20 μl/well of MTS reagent were added in 96 well plates and stored in 37° C. incubator for about 3 hr followed by absorbance reading at 490 nm. The assay was carried out up to 72 hrs at various concentrations described herein.
With a cross-diagonal multidrug treatment design, the combination index (CI) was calculated to determine mathematical synergy using the median effect method per Calcusyn software (Biosoft, Ferguson, Mo.). This software utilizes multiple drug dose-effect calculations using the Median Effect methods (Chou T. C., et al., Trends Pharmacol. Sci. 4, 450-454). […] The fraction of cells affected (Fa) by carboplatin and BMS-833923 was used to calculate dose response curves and the CI. Statistically Calcusyn quantifies phenomena such as synergism vs. additive effects as well as inhibition (antagonism). Calcusyn software defines synergy as a CI value<1 with the extent of synergism stratified as follows: Possible Synergy: 1.0-0.91; Moderate Synergy: […]; and Clear Synergy: 0.7-0.3. A CI=1 may be indicative of additivity; a CI>1 may be indicative of antagonism.
Combination indices were calculated to determine mathematical synergy using the median effect method per Calcusyn software (Biosoft, Ferguson, Mo.) as described above. Monolayers of SKOV3 cells were contacted with various chemotherapeutic agents, and BMS-833923 in combination with various chemotherapeutic agents. The chemotherapeutic agents included Carboplatin, Taxol™, Gemzar™, Topotecan (Hycamtim™), and Doxil™. The percentage survival of the contacted SKOV3 cells was measured over 72 hours. Synergistic effects were calculated statistically using Calcusyn™ Software. A combination index (CI) less than 1 indicates synergy; a CI equal to 1 indicates additivity; a CI greater than 1 indicated antagonism.
Combination indices were calculated to determine mathematical synergy using the median effect method per Calcusyn software (Biosoft, Ferguson, Mo.) as described above. […] Per prior definitions this represents Clear Synergy defined as CI<0.7. This level of synergy would result in a 2- to 14-fold reduction of carboplatin dose required with the addition of BMS-833923. (Table 5 and FIG. 9).
The dose reduction index (DRI) was determined for experimental values using the Calcusyn software package, with the relative CI and the fraction affected to determine the relative reduction in a dose to achieve similar effects with a single agent (Table 6).

A2780/CP70 cells = experiment: Carboplatin IC50 with and without BMS-833923 in platinum resistant cell line; conditions: A2780/CP70, addition of BMS-833923 at 5 μM
Protocol: Considering the synergy described above and that the Hedgehog pathway is associated with cancer stem cell properties. In the effect of BMS-833923 plus carboplatin in two isogenic ovarian cancer cell lines specifically designed to evaluate platinum resistance mechanisms: A2780 (platinum sensitive) & A2780/CP70 (platinum resistant). Each cell line was evaluated to determine the IC50 dose of carboplatin to ensure a discernable difference in platinum treatment could be determined (FIG. 11A). The A2780/CP70 cell line required a 4-fold increase in carboplatin to reach IC50 (A2780/CP70=400 μM; A2780=100 μM). […] (FIG. 11B and FIG. 11C).

`CNCc1ccc(C)c(NC(=O)c2ccc(Nc3nc(-c4ccccc4)c4ccccc4n3)cc2)c1` [BMS-833923, N-{2-methyl-5-[(methylamino)methyl]phenyl}-4-[(4-phenylquinazolin-2-yl)amino]benzamide] was tested. Which IC50 (ES2 cells) did it give?
Its IC50 is 4 µM.

What about the IC50 (OV90 cells) of the same compound?
Its IC50 is 4 µM.

What about the IC50 (SKOV3 cells [1]) of the same compound?
The IC50 was 7.5 µM.

What about the IC50 (TOV112D cells) of the same compound?
The IC50 was 5 µM.

What about the “decrease in GLI1 activity (RTQ)” value (GLI1; SKOV3, 2.5 μM, 24 hr and 48 hr, vs untreated) of the same compound?
Its value is 10 fold.

What about the “downregulation of GLI1 protein compared to untreated controls” value (GLI1; as stated in the description) of the same compound?
Its value is 5 fold.

What about the “PTCH activity compared to untreated controls” value (PTCH; SKOV3, 2.5 μM, 24 hr and 48 hr) of the same compound?
The value was “down-regulation in activity”.

And the “downregulation of PTCH protein compared to untreated controls” value (PTCH; as stated in the description)?
Its value is 3 fold.

And the “BMS-833923 DRI” value (SKOV3 cells [2]; fraction affected 16.6%)?
Its value is 2.314.

And the “BMS-833923 single agent dose to achieve the fraction affected” value (SKOV3 cells [2]; fraction affected 16.6%)?
Its value is 9.2573 µM.

What about the “BMS-833923 DRI” value (SKOV3 cells [2]; fraction affected 29.1%) of the same compound?
Its value is 3.223.

And the “BMS-833923 single agent dose to achieve the fraction affected” value (SKOV3 cells [2]; fraction affected 29.1%)?
The value was 12.8916 µM.

And the “BMS-833923 DRI” value (SKOV3 cells [2]; fraction affected 38.4%)?
Its value is 3.120.

What about the “BMS-833923 single agent dose to achieve the fraction affected” value (SKOV3 cells [2]; fraction affected 38.4%) of the same compound?
Its value is 15.6024 µM.

What about the “BMS-833923 DRI” value (SKOV3 cells [2]; fraction affected 41.8%) of the same compound?
Its value is 3.330.

What about the “BMS-833923 single agent dose to achieve the fraction affected” value (SKOV3 cells [2]; fraction affected 41.8%) of the same compound?
Its value is 16.6516 µM.

And the “reduction of platinum needed to achieve the same cell death” value (A2780/CP70 cells)?
Its value is 10 fold.
